The values that follow come from ChEMBL document CHEMBL1157981, “Goniotriocin and (2,4-cis- and -trans)-xylomaticinones, bioactive annonaceous acetogenins from Goniothalamus giganteus” (J Nat Prod, 1999).

Each structure is given as a SMILES string. Converted amounts (≈) assume the structure as drawn.

The subject of one data set is MCF7. In words: Cytotoxicity against human MCF7 cells by MTT assay. The format is functional. The settings on record: read-out: ED50 (the source's name).
Another data set relates to MIA PaCa-2. In words: Cytotoxicity against human PaCa2 cells by MTT assay. In kind it is functional. The settings on record: read-out: ED50 (the source's name). For orientation: Formazan colour is commonly taken as a measure of viable cells.
Another data set deals with HT-29. The data set is described as follows: Cytotoxicity against human HT-29 cells by MTT assay. The conditions noted are these: read-out: ED50 (the source's name). In kind it is functional.
The next data set has as its system A549. The data set is described as follows: Cytotoxicity against human A549 cells by MTT assay. In kind it is functional. The conditions noted are these: read-out: ED50 (the source's name).
In another data set the test system is PC-3. In words: Cytotoxicity against human PC-3 cells by MTT assay. The format is functional. The settings on record: read-out: ED50 (the source's name).
For another data set, the system named is A498. In words: Cytotoxicity against human A-498 cells by MTT assay. The settings on record: read-out: ED50 (the source's name). In kind it is functional.
A short description of data set [1]: Toxicity in brine shrimp. In kind it is organism-based. The conditions noted are these: artemia, in vivo.
Another data set deals with Aedes aegypti. The data set is described as follows: Pesticidal activity against yellow fever mosquito larvae by microtiter plate assay. The format is functional.

For `COc1cccc2c1C(=O)c1c(O)c3c(c(O)c1C2=O)C[C@@](O)(C(=O)CO)C[C@@H]3O[C@H]1C[C@H](N)[C@H](O)[C@H](C)O1` [DOXORUBICIN], the EC50 in the data set with MCF7 turned out to be 0.21 µg/mL (≈ 0.386 µM); with MIA PaCa-2, 0.023 µg/mL (≈ 0.0423 µM); in the data set with HT-29 it was 0.031 µg/mL (≈ 0.057 µM); in the data set with A549, 0.017 µg/mL (≈ 0.0313 µM); in the data set on PC-3, 0.062 µg/mL (≈ 0.114 µM); with A498 it was 0.019 µg/mL (≈ 0.035 µM).
As to `CCCCCCCCCCCCC(=O)C[C@@H]1C[C@@H](O)[C@@H](CC[C@H](O)[C@@H]2CC[C@@H](CCCCCC(O)CC3=CC(C)OC3=O)O2)O1` (stereo not given in full) [GONIOTRICIN], the median lethal concentration (LC50) (usually the concentration that kills 50% of the test population) in data set [1] turned out to be 2.7 µg/mL (≈ 4.24 µM); with Aedes aegypti, 3.6 µg/mL (≈ 5.65 µM). For the same compound, the EC50 is 0.0033 µg/mL (≈ 0.00518 µM) in the data set with MCF7; 1.4 µg/mL (≈ 2.2 µM) with MIA PaCa-2; 0.0012 µg/mL (≈ 0.00188 µM) with HT-29; 0.033 µg/mL (≈ 0.0518 µM) in the data set with A549; 0.26 µg/mL (≈ 0.408 µM) in the data set with PC-3; 0.0011 µg/mL (≈ 0.00173 µM) in the data set with A498.
On to `C=C(C)[C@H]1Cc2c(ccc3c2O[C@@H]2COc4cc(OC)c(OC)cc4[C@@H]2C3=O)O1` [ROTENONE], for which the LC50 in the data set on Aedes aegypti turned out to be 0.3 µg/mL (≈ 0.761 µM).
